Assay results from US12441736B2, “KIF18A inhibitors” (AMGEN INC., priority 2018, dated 2025).

Target: T1, Recombinant human KIF18A (1-467 His-tagged) protein (Homo sapiens, UniProt Q8NI77)
T1 construct: Recombinant human KIF18A (1-467 His-tagged) protein; His; made in house
Assay: KIF18A Enzyme Assay: microtubule-stimulated ATPase activity (ADP-Glo)
Type: biochemical
Conditions: 30 nM KIF18A, 30 μg/mL pig microtubules, 75 μM ATP, ADP-Glo luminescence
Text: KIF18A Enzyme Assay: Microtubule-stimulated ATPase activity assay is used to measure KIF18A enzyme activity after treatment with compound. Compounds were 2-fold serially diluted in DMSO (Sigma Inc) over 22-point concentration range. Recombinant human KIF18A (1-467 His-tagged) protein was expressed using a baculovirus system and purified by affinity chromatography by Amgen Inc. Concentrations of KIF18A protein, microtubules (MT), and ATP in the reaction were optimized for standardized homogenous enzyme assay using ADP-Glo™ Kinase/ATPase Assay Kit (Promega Inc). The assay measures ADP formed from the ATPase reaction. Prepare reaction buffer [(15 mM Tris, pH 7.5 (Teknova Inc), 10 mM MgCl2 (IT Baker Inc), 0.01% Pluronic F-68 (Life Technologies Inc), 1 μM Taxol (Cytoskeleton Inc), and 30 μg/mL pig microtubules (Cytoskeleton Inc)]. Add compound and KIF18A protein (30 nM) to prepared reaction buffer and incubated for 15 minutes at room temperature, next add ATP (at Kin, 75 μM) to the reaction mixture and incubated for an additional 15 minutes at room temperature. Mix 5 μl of ADP-Glo™ Reagent and 2.5 μl of the reaction mixture and incubate for 40 minutes at room temperature. Add 10 μl ADP-Glo™ Detection Reagent and incubate for 40 minutes at room temperature. Read luminescence using EnVision microplate reader with ultra-luminescence module (Perkin Elmer Inc). Concentration-response curve-fitting and IC50 determination was performed using Genedata Screener Software (Standard 15.0.1, Genedata Inc) with a four-parameter logistic regression fit model.
Table A provides data for compounds exemplified in the present application and priority document thereof, as representative compounds of the present invention, as follows: chemical name (as named by either ACD software or ChemDraw (Professional 15.0)) and biological data (IC50 in μM). Ex. # refers to Example No.

T1 sequence (Q8NI77 1-467): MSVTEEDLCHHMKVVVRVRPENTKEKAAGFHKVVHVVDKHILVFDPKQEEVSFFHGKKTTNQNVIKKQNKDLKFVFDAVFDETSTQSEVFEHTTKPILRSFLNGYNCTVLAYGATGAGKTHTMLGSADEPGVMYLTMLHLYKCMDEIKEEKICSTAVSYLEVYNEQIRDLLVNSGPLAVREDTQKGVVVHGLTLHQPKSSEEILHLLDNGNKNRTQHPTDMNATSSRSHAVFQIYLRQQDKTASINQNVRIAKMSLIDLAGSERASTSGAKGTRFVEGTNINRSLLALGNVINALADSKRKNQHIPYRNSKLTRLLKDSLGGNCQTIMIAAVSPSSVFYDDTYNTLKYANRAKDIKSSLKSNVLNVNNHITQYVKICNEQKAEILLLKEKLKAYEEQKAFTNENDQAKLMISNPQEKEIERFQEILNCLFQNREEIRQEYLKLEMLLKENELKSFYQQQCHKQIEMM
T1 sequence (P02550 whole entry partner): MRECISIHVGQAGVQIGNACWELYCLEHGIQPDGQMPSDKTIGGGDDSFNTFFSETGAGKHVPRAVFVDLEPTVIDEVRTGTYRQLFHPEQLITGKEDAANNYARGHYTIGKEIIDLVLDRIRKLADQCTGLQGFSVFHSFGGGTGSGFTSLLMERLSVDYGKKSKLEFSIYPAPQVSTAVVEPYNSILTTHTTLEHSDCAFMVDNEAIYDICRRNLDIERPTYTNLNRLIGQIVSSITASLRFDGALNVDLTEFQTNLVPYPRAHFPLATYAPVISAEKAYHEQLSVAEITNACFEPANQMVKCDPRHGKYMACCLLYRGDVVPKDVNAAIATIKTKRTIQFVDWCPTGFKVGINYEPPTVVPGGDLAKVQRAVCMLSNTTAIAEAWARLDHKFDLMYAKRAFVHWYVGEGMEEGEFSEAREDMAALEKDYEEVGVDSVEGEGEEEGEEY
T1 sequence (P02554 whole entry partner): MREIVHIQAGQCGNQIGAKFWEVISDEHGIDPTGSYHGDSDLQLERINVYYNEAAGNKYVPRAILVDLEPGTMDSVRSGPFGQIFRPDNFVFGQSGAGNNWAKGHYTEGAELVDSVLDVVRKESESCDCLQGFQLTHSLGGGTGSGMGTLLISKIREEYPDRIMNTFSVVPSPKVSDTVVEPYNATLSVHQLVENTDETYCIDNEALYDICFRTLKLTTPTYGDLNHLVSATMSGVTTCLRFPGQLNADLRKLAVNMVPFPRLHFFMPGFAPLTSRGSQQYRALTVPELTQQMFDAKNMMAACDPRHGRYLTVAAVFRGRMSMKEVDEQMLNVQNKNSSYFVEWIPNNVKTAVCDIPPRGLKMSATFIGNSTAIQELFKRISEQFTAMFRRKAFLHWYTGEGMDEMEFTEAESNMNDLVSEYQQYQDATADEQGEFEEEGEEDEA

Row | SMILES | IC50
1 | C[C@H]1CN(c2cccc(NC(=O)c3ncc(NC(C)(C)CO)nc3N3CCC4(CC3)CC4)n2)C[C@H](C)O1 (racemic) [Example 111, N-(6-((2S,6S)-2,6-dimethylmorpholino)pyridin-2-yl)-5-((1-hydroxy-2-methylpropan-2-yl)amino)-3-(6-azaspiro[2.5]octan-6-yl)pyrazine-2-carboxamide] | 110 nM
2 | CC(C)(CO)Nc1cnc(C(=O)Nc2cccc(N3C[C@@H]4C[C@H]3CO4)n2)c(N2CCC3(CC2)CC3)n1 (racemic) [Example 112, N-(6-((1S,4S)-2-oxa-5-azabicyclo[2.2.1]heptan-5-yl)pyridin-2-yl)-5-((1-hydroxy-2-methylpropan-2-yl)amino)-3-(6-azaspiro[2.5]octan-6-yl)pyrazine-2-carboxamide] | 182 nM
3 | CC(C)(C)NS(=O)(=O)c1cccc(NC(=O)c2ccc(C(C)(O)C(F)(F)F)nc2N2CCC3(CC2)CC3)n1 (racemic) [Example 143, N-(6-(N-(tert-butyl)sulfamoyl)pyridin-2-yl)-2-(6-azaspiro[2.5]octan-6-yl)-6-(1,1,1-trifluoro-2-hydroxypropan-2-yl)nicotinamide] | 90.4 nM
4 | C[C@H]1CN(c2cccc(NC(=O)c3ccc(NC(C)(C)CO)nc3N3CCC4(CC3)CC4)n2)C[C@H](C)O1 (racemic) [Example 150, N-(6-((2S,6S)-2,6-dimethylmorpholino)pyridin-2-yl)-6-((1-hydroxy-2-methylpropan-2-yl)amino)-2-(6-azaspiro[2.5]octan-6-yl)nicotinamide] | 99.7 nM
5 | CC(C)(CO)Nc1ccc(C(=O)Nc2cccc(N3C[C@@H]4C[C@H]3CO4)n2)c(N2CCC3(CC2)CC3)n1 (racemic) [Example 151, N-(6-((1S,4S)-2-oxa-5-azabicyclo[2.2.1]heptan-5-yl)pyridin-2-yl)-6-((1-hydroxy-2-methylpropan-2-yl)amino)-2-(6-azaspiro[2.5]octan-6-yl)nicotinamide] | 90.5 nM
6 | CC(C)(C)NS(=O)(=O)c1cccc(NC(=O)c2ccc(C3(C(F)(F)F)COC(C)(C)O3)nc2N2CCC3(CC2)CC3)n1 (racemic) [Example 171, N-(6-(N-(tert-butyl)sulfamoyl)pyridin-2-yl)-6-(2,2-dimethyl-4-(trifluoromethyl)-1,3-dioxolan-4-yl)-2-(6-azaspiro[2.5]octan-6-yl)nicotinamide] | 286 nM
7 | CC(C)(C)NS(=O)(=O)c1cccc(NC(=O)c2ccc(C(O)(CO)C(F)(F)F)nc2N2CCC3(CC2)CC3)n1 (racemic) [Example 172, N-(6-(N-(tert-butyl)sulfamoyl)pyridin-2-yl)-2-(6-azaspiro[2.5]octan-6-yl)-6-(1,1,1-trifluoro-2,3-dihydroxypropan-2-yl)nicotinamide] | 120 nM
8 | C[C@@H]1CO[C@@H](C)CN1c1cccc(NC(=O)c2ccc(NC(C)(C)CO)nc2N2CCC3(CC2)CC3)n1 (racemic) [Example 187, N-(6-((2S,5R)-2,5-dimethylmorpholino)pyridin-2-yl)-6-((1-hydroxy-2-methylpropan-2-yl)amino)-2-(6-azaspiro[2.5]octan-6-yl)nicotinamide] | 252 nM
9 | C[C@H]1CN(c2cccc(NC(=O)c3ccc(NC(C)(C)CO)nc3N3CCC4(CC3)CC4)n2)[C@@H](C)CO1 (racemic) [Example 199, N-(6-((2S,5S)-2,5-dimethylmorpholino)pyridin-2-yl)-6-((1-hydroxy-2-methylpropan-2-yl)amino)-2-(6-azaspiro[2.5]octan-6-yl)nicotinamide] | 243 nM
10 | CC(O)(c1ccc(C(=O)Nc2cccc(N3CCOCC3)n2)c(N2CCC3(CC2)CC3)n1)C(F)(F)F (single isomer, unassigned) [Example 141] | 88 nM
11 | CC(C)(C)NS(=O)(=O)c1cccc(NC(=O)c2ccc([C@@](C)(O)C(F)(F)F)nc2N2CCC3(CC2)CC3)n1 (single isomer, unassigned) [Example 153] | 53.4 nM
12 | CC(C)(C)NS(=O)(=O)c1cccc(NC(=O)c2ccc([C@](C)(O)C(F)(F)F)nc2N2CCC3(CC2)CC3)n1 (single isomer, unassigned) [Example 154] | 105 nM
13 | CC(C)(C)NS(=O)(=O)c1cccc(NC(=O)c2ccc([C@@](O)(CO)C(F)(F)F)nc2N2CCC3(CC2)CC3)n1 (single isomer, unassigned) [Example 175] | 116 nM
14 | CC(C)(C)NS(=O)(=O)c1cccc(NC(=O)c2ccc([C@](O)(CO)C(F)(F)F)nc2N2CCC3(CC2)CC3)n1 (single isomer, unassigned) [Example 176] | 101 nM
15 | CC(C)(C)NS(=O)(=O)c1cccc(NC(=O)c2ccc([C@](C)(O)CO)nc2N2CCC3(CC2)CC3)n1 (single isomer, unassigned) [Example 177] | 87.3 nM
16 | CC(C)(C)NS(=O)(=O)c1cccc(NC(=O)c2ccc([C@@](C)(O)CO)nc2N2CCC3(CC2)CC3)n1 (single isomer, unassigned) [Example 178] | 109 nM
17 | O=C(Nc1cccc(N2CCOCC2)n1)c1ccc([C@@](O)(CO)C(F)(F)F)nc1N1CCC2(CC1)CC2 (single isomer, unassigned) [Example 201] | 76.9 nM
18 | O=C(Nc1cccc(N2CCOCC2)n1)c1ccc([C@](O)(CO)C(F)(F)F)nc1N1CCC2(CC1)CC2 (single isomer, unassigned) [Example 202] | 68.4 nM
19 | C[C@@H]1CN(c2cccc(NC(=O)c3ccc([C@@](O)(CO)C(F)(F)F)nc3N3CCC4(CC3)CC4)n2)CCO1 (single isomer, unassigned) [Example 206] | 116 nM
20 | C[C@@H]1CN(c2cccc(NC(=O)c3ccc([C@](O)(CO)C(F)(F)F)nc3N3CCC4(CC3)CC4)n2)CCO1 (single isomer, unassigned) [Example 207] | 105 nM
21 | CC1(C)COC(=O)N1c1ccc(C(=O)Nc2cccc(N3CC[C@H](O)C3(C)C)n2)c(N2CCC3(CC2)CC3)n1 (stereo in doubt) [Example 220, 6-(4,4-dimethyl-2-oxooxazolidin-3-yl)-N-(6-(3-hydroxy-2,2-dimethylpyrrolidin-l-yl)pyridin-2-yl)-2-(6-azaspiro[2.5]octan-6-yl)nicotinamide] | 2250 nM
22 | CC(C)(CO)Nc1cnc(C(=O)Nc2cccc(S(=O)(=O)N3CCCCC3)n2)c(N2CCC3(CC2)CC3)n1 [Example 100, 5-((1-hydroxy-2-methylpropan-2-yl)amino)-N-(6-(piperidin-1-ylsulfonyl)pyridin-2-yl)-3-(6-azaspiro[2.5]octan-6-yl)pyrazine-2-carboxamide] | 70.5 nM
23 | O=C(Nc1cccc(S(=O)(=O)N2CCCCC2)n1)c1ncc(NC2(CO)CC2)nc1N1CCC2(CC1)CC2 [Example 101, 3-(6-azaspiro[2.5]oct-6-yl)-5-((1-(hydroxymethyl)cyclopropyl)amino)-N-(6-(1-piperidinylsulfonyl)-2-pyridinyl)-2-pyrazinecarboxamide] | 106 nM
24 | CC(C)(C)NS(=O)(=O)c1cccc(NC(=O)c2ncc(NC(C)(C)CO)nc2N2CCC3(CC2)CC3)n1 [Example 102, N-(6-(N-(tert-butyl)sulfamoyl)pyridin-2-yl)-5-((1-hydroxy-2-methylpropan-2-yl)amino)-3-(6-azaspiro[2.5]octan-6-yl)pyrazine-2-carboxamide] | 75.3 nM
25 | C[C@@H]1CN(c2cccc(NC(=O)c3ncc(N4C(=O)OCC4(C)C)nc3N3CCC4(CC3)CC4)n2)CCO1 [Example 103, 3-(6-azaspiro[2.5]oct-6-yl)-5-(4,4-dimethyl-2-oxo-1,3-oxazolidin-3-yl)-N-(6-((2R)-2-methyl-4-morpholinyl)-2-pyridinyl)-2-pyrazinecarboxamide] | 1940 nM
26 | C[C@@H]1CN(c2cccc(NC(=O)c3ncc(NC(C)(C)CO)nc3N3CCC4(CC3)CC4)n2)CCO1 [Example 104, (R)-5-((1-hydroxy-2-methylpropan-2-yl)amino)-N-(6-(2-methylmorpholino)pyridin-2-yl)-3-(6-azaspiro[2.5]octan-6-yl)pyrazine-2-carboxamide] | 83.4 nM
27 | C[C@H]1CCN(c2cccc(NC(=O)c3ncc(NC(C)(C)CO)nc3N3CCC4(CC3)CC4)n2)C1 [Example 105, 3-(6-azaspiro[2.5]oct-6-yl)-5-((1-hydroxy-2-methyl-2-propanyl)amino)-N-(6-((3S)-3-methyl-1-pyrrolidinyl)-2-pyridinyl)-2-pyrazinecarboxamide] | 122 nM
28 | CC(C)(CO)Nc1cnc(C(=O)Nc2cccc(N3CCOCC3)n2)c(N2CCC3(CC2)CC3)n1 [Example 106, 3-(6-azaspiro[2.5]oct-6-yl)-5-((2-hydroxy-1,1-dimethylethyl)amino)-N-(6-(4-morpholinyl)-2-pyridinyl)-2-pyrazinecarboxamide] | 84.4 nM
29 | CC1(C)CC(=O)N(c2cccc(NC(=O)c3ncc(NC(C)(C)CO)nc3N3CCC4(CC3)CC4)n2)C1 [Example 107, 3-(6-azaspiro[2.5]oct-6-yl)-N-(6-(4,4-dimethyl-2-oxo-1-pyrrolidinyl)-2-pyridinyl)-5-((1-hydroxy-2-methyl-2-propanyl)amino)-2-pyrazinecarboxamide] | 111 nM
